In PubChem BioAssay (NCI):
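96-well plates; 48 h exposure; 5 concentrations. Endpoints by linear interpolation between flanking doses. Not reached: highest tested concentration assigned. GI50: concentration for 50% inhibition of growth. TGI: concentration producing complete growth inhibition.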

How the values were obtained:
Experiment in all cases: NCI tumour cell line growth inhibition, 48 h
UACC-257 melanoma = test system: UACC-257 melanoma
A549 NSCLC = test system: A549 NSCLC
UO-31 renal = test system: UO-31 renal
T-47D breast = test system: T-47D breast
SF-268 CNS = test system: SF-268 CNS
SF-295 CNS = test system: SF-295 CNS
DU-145 prostate = test system: DU-145 prostate
UACC-62 melanoma = test system: UACC-62 melanoma
SNB-75 CNS = test system: SNB-75 CNS
SW-620 colon = test system: SW-620 colon
RPMI-8226 leukemia = test system: RPMI-8226 leukemia
ACHN renal = test system: ACHN renal
HCT-116 colon = test system: HCT-116 colon
MDA-MB-435 = test system: MDA-MB-435
MDA-MB-231 breast = test system: MDA-MB-231 breast
HOP-62 NSCLC = test system: HOP-62 NSCLC
NCI-H460 lung = test system: NCI-H460 lung
MALME-3M melanoma = test system: MALME-3M melanoma
SK-MEL-2 melanoma = test system: SK-MEL-2 melanoma
NCI-H226 lung = test system: NCI-H226 lung
KM12 colon = test system: KM12 colon
HT29 colon = test system: HT29 colon
IGROV1 ovarian = test system: IGROV1 ovarian
PC-3 prostate = test system: PC-3 prostate
HCC-2998 colon = test system: HCC-2998 colon
SF-539 CNS = test system: SF-539 CNS
NCI/ADR-RES ovarian = test system: NCI/ADR-RES ovarian
HCT-15 colon = test system: HCT-15 colon
A498 renal = test system: A498 renal
786-0 renal = test system: 786-0 renal
RXF 393 renal = test system: RXF 393 renal
SK-MEL-5 melanoma = test system: SK-MEL-5 melanoma
NCI-H522 lung = test system: NCI-H522 lung
BT-549 breast = test system: BT-549 breast
SR leukemia = test system: SR leukemia
OVCAR-4 ovarian = test system: OVCAR-4 ovarian
HS 578T breast = test system: HS 578T breast
K-562 leukemia = test system: K-562 leukemia
U251 CNS = test system: U251 CNS
EKVX NSCLC = test system: EKVX NSCLC
MCF7 breast = test system: MCF7 breast
COLO 205 colon = test system: COLO 205 colon
HL-60(TB) leukemia = test system: HL-60(TB) leukemia
LOX IMVI melanoma = test system: LOX IMVI melanoma
SK-MEL-28 melanoma = test system: SK-MEL-28 melanoma
TK-10 renal = test system: TK-10 renal
HOP-92 NSCLC = test system: HOP-92 NSCLC
M14 melanoma = test system: M14 melanoma
OVCAR-5 ovarian = test system: OVCAR-5 ovarian
SNB-19 CNS = test system: SNB-19 CNS
MOLT-4 leukemia = test system: MOLT-4 leukemia
CAKI-1 renal = test system: CAKI-1 renal
OVCAR-8 ovarian = test system: OVCAR-8 ovarian
CCRF-CEM leukemia = test system: CCRF-CEM leukemia
SK-OV-3 ovarian = test system: SK-OV-3 ovarian
SN12C renal = test system: SN12C renal

With CCNC(=O)Oc1ccc(/C(=C(/C)c2ccc(OC)cc2)c2ccc(OCCN3CCCCCC3)cc2)cc1 the GI50 (UACC-257 melanoma) was 1.06 µM, the TGI (UACC-257 melanoma) was 2.76 µM and the GI50 (A549 NSCLC) was 3.88 µM. The TGI (A549 NSCLC) was 10.3 µM, the GI50 (UO-31 renal) was 1.43 µM and the TGI (UO-31 renal) was 5.53 µM. For the same compound, the GI50 (T-47D breast) was 1.23 µM, the TGI (T-47D breast) was 7.88 µM and the GI50 (SF-268 CNS) was 6.69 µM. It also gave a TGI (SF-268 CNS) of 15 µM, a GI50 (SF-295 CNS) of 1.15 µM and a TGI (SF-295 CNS) of 3.44 µM. The GI50 (DU-145 prostate) was 6.76 µM, the TGI (DU-145 prostate) was 13.2 µM and the GI50 (UACC-62 melanoma) was 1.79 µM. For the same compound, the TGI (UACC-62 melanoma) was 6.33 µM, the GI50 (SNB-75 CNS) was 6.03 µM and the TGI (SNB-75 CNS) was 12.9 µM. It also gave a GI50 (SW-620 colon) of 1.3 µM, a TGI (SW-620 colon) of 3.28 µM and a GI50 (RPMI-8226 leukemia) of 1.18 µM. The TGI (RPMI-8226 leukemia) was 3.21 µM, the GI50 (ACHN renal) was 6.04 µM and the TGI (ACHN renal) was 12.2 µM. The GI50 (HCT-116 colon) was 2.57 µM, the TGI (HCT-116 colon) was 8.68 µM and the GI50 (MDA-MB-435) was 3.69 µM. It also gave a TGI (MDA-MB-435) of 10.3 µM, a GI50 (MDA-MB-231 breast) of 2.74 µM and a TGI (MDA-MB-231 breast) of 9.28 µM. The GI50 (HOP-62 NSCLC) was 5.84 µM, the TGI (HOP-62 NSCLC) was 12.3 µM and the GI50 (NCI-H460 lung) was 1.95 µM. The TGI (NCI-H460 lung) was 6.91 µM, the GI50 (MALME-3M melanoma) was 1.1 µM and the TGI (MALME-3M melanoma) was 2.57 µM. The GI50 (SK-MEL-2 melanoma) was 5.18 µM, the TGI (SK-MEL-2 melanoma) was 11.2 µM and the GI50 (NCI-H226 lung) was 6.42 µM. For the same compound, the TGI (NCI-H226 lung) was 14.6 µM, the GI50 (KM12 colon) was 8.88 µM and the TGI (KM12 colon) was 16.7 µM. For the same compound, the GI50 (HT29 colon) was 1.66 µM, the TGI (HT29 colon) was 6.08 µM and the GI50 (IGROV1 ovarian) was 5.42 µM. The TGI (IGROV1 ovarian) was 12.5 µM, the GI50 (PC-3 prostate) was 2.75 µM and the TGI (PC-3 prostate) was 9.67 µM. For the same compound, the GI50 (HCC-2998 colon) was 2.93 µM, the TGI (HCC-2998 colon) was 9.29 µM and the GI50 (SF-539 CNS) was 2.08 µM. The TGI (SF-539 CNS) was 7.74 µM, the GI50 (NCI/ADR-RES ovarian) was 4.41 µM and the TGI (NCI/ADR-RES ovarian) was 11.1 µM. It also gave a GI50 (HCT-15 colon) of 1.57 µM, a TGI (HCT-15 colon) of 6.68 µM and a GI50 (A498 renal) of 2.67 µM. It also gave a TGI (A498 renal) of 9.65 µM, a GI50 (786-0 renal) of 1.86 µM and a TGI (786-0 renal) of 6.78 µM. It also gave a GI50 (RXF 393 renal) of 1.3 µM, a TGI (RXF 393 renal) of 5.03 µM and a GI50 (SK-MEL-5 melanoma) of 2.23 µM. It also gave a TGI (SK-MEL-5 melanoma) of 8.13 µM, a GI50 (NCI-H522 lung) of 6.43 µM and a TGI (NCI-H522 lung) of 13.5 µM. For the same compound, the GI50 (BT-549 breast) was 5.06 µM, the TGI (BT-549 breast) was 10.9 µM and the GI50 (SR leukemia) was 1.06 µM. The TGI (SR leukemia) was 2.76 µM, the GI50 (OVCAR-4 ovarian) was 5.16 µM and the TGI (OVCAR-4 ovarian) was 11.7 µM. For the same compound, the GI50 (HS 578T breast) was 2.48 µM, the TGI (HS 578T breast) was 11.3 µM and the GI50 (K-562 leukemia) was 1.22 µM. The TGI (K-562 leukemia) was 3.37 µM, the GI50 (U251 CNS) was 2.55 µM and the TGI (U251 CNS) was 8.87 µM. The GI50 (EKVX NSCLC) was 6.39 µM, the TGI (EKVX NSCLC) was 13.5 µM and the GI50 (MCF7 breast) was 0.786 µM. The TGI (MCF7 breast) was 7.41 µM, the GI50 (COLO 205 colon) was 1.07 µM and the TGI (COLO 205 colon) was 2.38 µM. The GI50 (HL-60(TB) leukemia) was 1.39 µM, the TGI (HL-60(TB) leukemia) was 4.59 µM and the GI50 (LOX IMVI melanoma) was 0.865 µM. For the same compound, the TGI (LOX IMVI melanoma) was 1.91 µM, the GI50 (SK-MEL-28 melanoma) was 1.45 µM and the TGI (SK-MEL-28 melanoma) was 4.48 µM. It also gave a GI50 (TK-10 renal) of 9.35 µM, a TGI (TK-10 renal) of 16.5 µM and a GI50 (HOP-92 NSCLC) of 1.89 µM. It also gave a TGI (HOP-92 NSCLC) of 9.17 µM, a GI50 (M14 melanoma) of 0.913 µM and a TGI (M14 melanoma) of 1.83 µM. The GI50 (OVCAR-5 ovarian) was 6.48 µM, the TGI (OVCAR-5 ovarian) was 12.8 µM and the GI50 (SNB-19 CNS) was 5.92 µM. It also gave a TGI (SNB-19 CNS) of 12.2 µM, a GI50 (MOLT-4 leukemia) of 1.44 µM and a TGI (MOLT-4 leukemia) of 5.06 µM. It also gave a GI50 (CAKI-1 renal) of 2.34 µM, a TGI (CAKI-1 renal) of 8.3 µM and a GI50 (OVCAR-8 ovarian) of 5.72 µM. The TGI (OVCAR-8 ovarian) was 12.2 µM, the GI50 (CCRF-CEM leukemia) was 2.25 µM and the TGI (CCRF-CEM leukemia) was 33.4 µM. The GI50 (SK-OV-3 ovarian) was 5.01 µM, the TGI (SK-OV-3 ovarian) was 11.1 µM and the GI50 (SN12C renal) was 5.55 µM. For the same compound, the TGI (SN12C renal) was 12.1 µM.
